{"source": "patent US12042478B2", "about": "“(R)-2-[(2H-1,3-benzodioxol-5-yl)methyl]pyrrolidine and processes for preparation, compositions and uses thereof” (Pharmala Biotech Inc., priority 2022, dated 2024)", "key": {"DAT": {"target": "DAT (Homo sapiens, UniProt Q01959)", "sequence (Q01959 whole entry, species assumed)": "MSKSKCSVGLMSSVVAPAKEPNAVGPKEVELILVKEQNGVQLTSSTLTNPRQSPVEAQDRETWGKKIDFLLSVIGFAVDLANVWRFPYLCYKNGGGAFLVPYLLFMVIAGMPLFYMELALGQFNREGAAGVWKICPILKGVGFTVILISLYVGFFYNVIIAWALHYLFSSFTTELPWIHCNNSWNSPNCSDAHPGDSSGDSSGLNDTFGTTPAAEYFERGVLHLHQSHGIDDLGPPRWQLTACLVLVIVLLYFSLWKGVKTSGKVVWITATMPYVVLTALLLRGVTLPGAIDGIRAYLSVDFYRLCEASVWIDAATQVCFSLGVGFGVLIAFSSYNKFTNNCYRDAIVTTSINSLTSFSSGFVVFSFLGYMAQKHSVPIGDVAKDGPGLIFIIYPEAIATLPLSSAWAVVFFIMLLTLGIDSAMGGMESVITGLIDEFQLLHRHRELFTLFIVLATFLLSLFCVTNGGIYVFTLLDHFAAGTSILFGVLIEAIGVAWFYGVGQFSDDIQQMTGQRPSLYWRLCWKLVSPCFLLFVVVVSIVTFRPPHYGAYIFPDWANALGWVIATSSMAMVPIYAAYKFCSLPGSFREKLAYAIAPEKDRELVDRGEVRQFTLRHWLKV", "assay": "QSAR model predicted IC50, DAT", "settings": "ratio = 1/DAT IC50:1/SERT IC50, from predicted IC50", "experimental": "In silico studies (QSAR and docking) are useful tools to understand drug mechanisms, and they are relatively cheaper and faster than experiments. A QSAR model was created for each monoamine transporter. Additionally, the docking properties of phenethylamines were investigated.\nQSAR: DAT, SERT and NET IC50 values were collected from the literature for 73 phenethylamines. Three different software's were used for descriptor calculations, and almost 2000 descriptors were calculated. Highly correlated descriptors were eliminated before multi-linear regression (MLR) analysis. All descriptors were merged with experimental inhibition values in QSARiNS software. The multi-Criteria Decision-Making tool of QSARiNS was used to pick the best model.\nThe predicted IC^50 (mM) values of the test molecules generated based on the QSAR developed as described above are presented in Table 4."}, "C57 and BTBR mice [1]": {"system": "C57 and BTBR mice", "assay": "Conditioned place preference", "format": "in vivo, mouse", "settings": "1.0 mg/kg, x3 pairings, C57 mice", "experimental": "The same 2-compartment chambers as described above in the social preference studies for conditioned place preference. For these studies, compartments are differentiated by floor texture (rough black plastic vs steel punch plate) and wall pattern (vertical vs. horizontal stripes.) An initial preference/habituation test was first run where mice were able to freely traverse the apparatus for 30 minutes. The following day, mice were assigned to receive saline in one compartment and drug in the other. Saline pairings occurred in the morning, drug pairings occurred in the afternoon, and were separated by at least 4 hours, during which time mice returned to their home cages. Three such pairings were performed, where mice were injected, returned to the home cage for a 15 min pretreatment period, then confined to the injection-appropriate compartment for 30 minutes. Half the subjects (within strain) received drug pairings on the plastic floor+vertical stripes side, and the other half received drug pairings on the punch plate floor+horizontal stripes side. […] The post-conditioning preference test was identical to the initial preference/habituation session, where mice were freely able to traverse the apparatus for 30 minutes. Time spent in each compartment was recorded, and expressed as a preference score for the drug paired side (calculated as time spent in that compartment during the post-test—time spent there during the pre-test.) All preference and conditioning sessions were conducted under the same low light conditions as in the social preference tests."}, "C57 and BTBR mice [2]": {"system": "C57 and BTBR mice", "assay": "Radiotelemetry of home cage locomotor activity", "format": "in vivo, mouse", "settings": "for locomotor stimulant effects: IP, C57 and BTBR mice", "experimental": "The radiotelemetry assay was conducted in adult male C57 and BTBR mice (n=6 per group) in a dedicated testing room where ambient light, sound, and human contact were tightly controlled.\nPrior to surgical implantation of radiotelemetry probes, mice received 3 mg/kg meloxicam (IP), and anesthesia was induced with 4% inhaled isoflurane and maintained with 1-3% isoflurane (as needed) throughout the procedure at a flow rate of 1.5 litres/minute. The abdominal area of each animal was treated with depilatory cream, then sanitized with 3 alternating scrubs with iodine and alcohol. A rostral-caudal cut approximately 1.5 cm in length was made with sterile skin scissors, providing access to the intraperitoneal cavity. A cylindrical glass-encapsulated radiotelemetry probe (model ER-4000 E-Mitter, Mini Mitter, Bend, OR, USA) was then inserted. These probes measure 15.5 mm×6.5 mm and weigh approximately 1 gram. Incisions were closed (skin layer and muscle layer separately) using reverse cutting 5-0 Vicryl absorbable sutures for the muscle layer and 5-0 nylon suture material for the skin layer. Surgeries were carried out at least 7 days before initiation of experimental conditions, allowing time for incisions to heal and for animals to recover normal body weights. Following surgery, all implanted mice were individually housed in Plexiglas cages within the telemetry room for the duration of all experiments. Implanted transmitters produce activity- and temperature-modulated signals which are sent to a receiver (model ER-4000 Receiver, Mini Mitter Co., Inc.) underneath each cage. Following use, telemetry probes were removed from carcasses, wiped with alcohol swabs, and stored in the disinfectant solution until re-use.\nAt least 7 days after surgical implantation of radiotelemetry probes, mice in their individual home cages were placed atop a telemetry energizer/receiver, which powers probes and transmits their data to an interfaced computer. […]"}, "C57 and BTBR mice [3]": {"system": "C57 and BTBR mice", "assay": "Tail cuff blood pressure monitoring (CODA non-invasive system)", "format": "in vivo, mouse", "settings": "for toxicity (blood pressure) relative to racemic MDMA: IP", "experimental": "The 8 chamber CODA™ Non-invasive blood pressure system was set up to monitor the blood pressure of C57 and BTBR mice. Mice were habituated to restraint, saline injection (IP), and tail-cuff pressure monitoring for at least three days before drug administration. Across days, groups of habituated mice were injected IP with increasing doses of test drug, in this case (R)-I, (S)-I and (R/S)-I, then returned to the home cage for 30 min. Tail cuff pressure monitoring then determined effects on systolic, diastolic, and mean arterial pressure in restrained C57 and BTBR mice in sessions lasting ˜30 min.\nIn the tail cuff pressure monitoring, an occlusion tail cuff was inflated to impede the blood flow to the tail. The cuff was deflated slowly, and a second tail cuff, incorporating the VPR sensor, measured the physiological characteristics of the returning blood flow. As the blood returned to the tail, the VPR sensor cuff measured the tail swelling resulting from arterial blood flow pulsations. Systolic blood pressure was automatically measured at the first appearance of tail swelling. Diastolic blood pressure was automatically measured when the increasing rate of swelling ceased in the tail."}}, "note": "Entries after “also recorded” stand apart in the source; their conditions may differ.", "data": [{"smiles": "c1cc2c(cc1C[C@H]1CCCN1)OCO2", "note": "[(R)-I, (R)-2-[(2H-1,3-benzodioxol-5-yl)methyl]pyrrolidine]", "values": [{"measurement": "DAT/SERT (calculated)", "setting": "DAT", "result": 0.022}, {"measurement": "place conditioning (place preference)", "setting": "C57 and BTBR mice [1]", "result": "neither 1.0 mg/kg (R)-I nor 1.0 mg/kg (S)-I elicited significant place preferences; also recorded: negligible effects"}, {"measurement": "locomotor effect", "setting": "C57 and BTBR mice [2]; 56 mg/kg i.p., BTBR mice, significantly different from saline", "result": "locomotor effect stronger than C57 mice at the same dose"}, {"measurement": "locomotor stimulant effects", "setting": "C57 and BTBR mice [2]; doses as high as 30 mg/kg", "result": "did not have significant locomotor stimulant effects"}, {"measurement": "cardiovascular effects (systolic, diastolic, mean arterial pressure)", "setting": "C57 and BTBR mice [3]; 10 mg/kg and 30 mg/kg IP, C57 and BTBR mice", "result": "lower impact on cardiovascular effects than (S)-I"}, {"measurement": "toxicity (blood pressure) relative to racemic MDMA", "setting": "C57 and BTBR mice [3]", "result": "significantly less toxic"}, {"measurement": "blood pressure rise relative to racemic MDMA and S-methamphetamine", "setting": "C57 and BTBR mice [3]; both strains", "result": "significantly lower"}]}, {"smiles": "c1cc2c(cc1C[C@@H]1CCCN1)OCO2", "note": "[(S)-I, (S)-2-[(2H-1,3-benzodioxol-5-yl)methyl]pyrrolidine]", "values": [{"measurement": "DAT/SERT (calculated)", "setting": "DAT", "result": 0.043}, {"measurement": "place conditioning (place preference)", "setting": "C57 and BTBR mice [1]", "result": "neither 1.0 mg/kg (R)-I nor 1.0 mg/kg (S)-I elicited significant place preferences; also recorded: negligible effects"}, {"measurement": "locomotor stimulant effects", "setting": "C57 and BTBR mice [2]; any dose tested", "result": "neither strain exhibited locomotor stimulant effects"}, {"measurement": "systolic and diastolic blood pressure", "setting": "C57 and BTBR mice [3]; 10 mg/kg i.p.", "result": "higher systolic and diastolic blood pressure than (R)-I"}, {"measurement": "toxicity (blood pressure) relative to racemic MDMA", "setting": "C57 and BTBR mice [3]", "result": "significantly less toxic"}]}]}
